Experimental data published in ChEMBL document CHEMBL2380299, “Sungsanpin, a lasso peptide from a deep-sea streptomycete” (J Nat Prod, 2013).
Calls of active or inactive are those of the source. No cut-off for these calls is given here. Where a SMILES comes first, the peptide text is derived from it. Bridges are numbered along the chain shown (N, C = ends).

Experiments:
A549 [1] = experiment: Antiinvasive activity against human A549 cells assessed as increase in TIMP-1 mRNA level after 24 hrs by RT-PCR analysis; assay type: functional, cell-based
A549 [2] = experiment: Antiinvasive activity against human A549 cells assessed as MMP-9 mRNA level after 24 hrs by RT-PCR analysis; assay type: functional, cell-based
A549 [3] = experiment: Antiinvasive activity against human A549 cells assessed as increase in TIMP-2 mRNA level after 24 hrs by RT-PCR analysis; assay type: functional, cell-based
A549 [4] = experiment: Antiinvasive activity against human A549 cells at 50 uM after 24 hrs by micro plate reader analysis relative to control; assay type: functional
A549 [5] = experiment: Antiinvasive activity against human A549 cells at 5 uM after 24 hrs by micro plate reader analysis relative to control; assay type: functional
A549 [6] = experiment: Antiinvasive activity against human A549 cells assessed as MMP-2 mRNA level after 24 hrs by RT-PCR analysis; assay type: functional, cell-based
A549 [7] = experiment: Cytotoxicity against human A549 cells up to 50 uM after 24 hrs by CCK-8 assay; assay type: cell-based; details: a549, 24 h

In the case of `CC[C@H](C)[C@@H]1NC(=O)[C@@H]2CCCN2C(=O)[C@H](CCCCN)NC(=O)[C@H](CO)NC(=O)CNC(=O)[C@H](Cc2ccccc2)NC(=O)CNC(=O)C[C@@H](C(=O)N[C@@H](CO)C(=O)N[C@@H](Cc2ccccc2)C(=O)NCC(=O)N[C@@H](CC(C)C)C(=O)N[C@@H](CO)C(=O)N[C@@H](Cc2c[nH]c3ccccc23)C(=O)N[C@@H](CC(C)C)C(=O)O)NC1=O` [SUNGSANPIN] (GFGSKPIDSFGLSWL-OH; lactam N-8), the Activity (A549 [1]) is reported as “Dose-dependent effect”, the Activity (A549 [2]) is reported as “inactive” and the Activity (A549 [3]) is reported as “Dose-dependent effect”. The Activity (A549 [4]) was 47%, the Activity (A549 [5]) was 25% and the Activity (A549 [6]) was “inactive”. The Activity (A549 [7]) was “Non-toxic”.
